The values that follow are results of earlier work, collected in patent publication EP4729597A1, “LOW-ALCOHOL BEER-LIKE BEVERAGE AND METHOD FOR PRODUCING LOW-ALCOHOL BEER-LIKE BEVERAGE” (Asahi Group Holdings, Ltd., priority 2023, dated 2024).

Where [1] appears, read: Table 1, octanol/water partition coefficient.

Read-outs that look alike come from different tables or passages of the source.

Turning to `CC(=O)OCCC(C)C` [Isoamyl acetate], the LogP is listed as 2.3. In addition, the LogP (Table 3) was 2.3.

Turning to `CC(C)=CCCC(C)CCO` (centres unmarked) [Citronellol], the LogP is listed as 3.9 under setting [1] and 3.9 (Table 3).

In the case of `CC(C)=CCC/C(C)=C/CO` [Geraniol], the LogP is, setting by setting: under setting [1], 3.6; (Table 3) 3.6.

`CCCCCCCC(=O)OCC` [Ethyl octanoate]: the LogP reads like this: under setting [1], 3.8; (Table 3) 3.8.

With `CC(=O)/C=C/C1=C(C)CCCC1(C)C` [β-ionone], the LogP under setting [1] is listed as 4.0.

For `C=CC(=C)CCC=C(C)C` [Myrcene], the LogP under setting [1] was 4.3 and the LogP (Table 3) was 4.3.

A word on the LogP: it is a log measure of how a compound divides between an organic and an aqueous phase.
